Where a name gives a salt, the structure may show the parent alone.
Key:
HeLa cells = test: Inhibition of proliferation of HeLa cells ([14C]-thymidine incorporation); assay type: cell-based; conditions: Homo sapiens, incubation for 48 hours, read-out: Inhibition of cell proliferation IC50 HeLa
Experimental: The proliferation of HeLa cells is assessed by measuring the incorporation of [^14C]-thymidine in the following way. The HeLa cells (epithelial tumor cells of human origin) are cultured in a DMEM medium (Gibco) which contains 10% fetal calf serum and antibiotics (1% penicillin, 1% streptomycin). To carry out the proliferation test, the cells are inoculated into 96-well cytostar microplates (Amersham), at a rate of 5 000 cells per well. [^14C]-thymidine (0.1 μCi/well) and the products to be assessed are then added. Variable concentrations of products up to 10 μM are used; the DMSO (solvent used to dissolve the products) should not exceed 0.5% in the medium. After incubation for 48 hours at 37° C., the radioactivity incorporated into the cells is measured by counting the plate in a TRI-LUX counter (Wallac). The IC50 value is defined as the concentration of product which reduces the radioactivity by 50% relative to an untreated control. A product whose IC50 value is less than 1 μM is considered as cytotoxic.

[1] = tested on: C51 murine adenocarcinoma; test: Assessment of the tumor necrosis in vivo; conditions: intravenous injection, 24 hours after treatment, female BALB/c mice
Text: Mice are bred by IFFA-CREDO (Domaine des Oncins, 69210 L'Arbresle, France) from a race obtained by Jackson Laboratories, Bar Harbor, Me., USA, or by Charles River France (76410 St Aubin les Elbeuf, France) from a race obtained by Charles River, USA. The mice initially weigh more than 18 g at the start of the test. They have free access to food (UAR reference 113, Villemoisson, 91160 Epinay sur Orge, France) and water.
The tumors used are currently transplanted in our laboratories. All these tumors are at the Frederick Cancer Research Facility (Frederick, Md., USA) in the frozen tumor deposit of the National Cancer Institute (NCl) or at the American Type Culture Collection (ATCC, Rockville, Md., USA).
The tumor transplantation techniques, the chemotherapy and the data analysis are presented in detail (Corbett et al. 1982a; Corbett et al., 1982b).
To summarize, the animals required for an experiment are assembled and implanted bilaterally on day 0 (zero).
The growth of the solid tumors develops freely up to the desired size. The mice are then treated by intravenous injection of a test compound in solution.
The sampling of tumors is usually (but not necessarily) carried out 24 hours after the treatment.
The mice are killed by […]. The implanted tumors, along with the skin covering them and the neighboring tissues, are collected and stored in 10% formaldehyde (v/v) (Carlo Erba, Val de Reuil, France).
The samples are then treated, sectioned, stained with hematoxylin, eosin and saffron yellow, and are then examined […]. The tumor necrosis (necrosis±degeneration) is assessed microscopically using a scale of magnitude from 0 to 5:
The values assigned to the tumor necrosis 24 hours after administration of the test compound correspond solely to a necrosis dependent on the product which may be differentiated with certainty from any existing necrosis arising from the experiment.
The necrosis due to the experiment was assessed on an untreated control.
The tumor model is a C51 murine adenocarcinoma. This colon tumor is a grade III mucous colon […]. It is maintained by serial subcutaneous passages every 18 days in female BALB/c mice. The experiments were carried out on female BALB/c mice.

HDMEC = test: Inhibition of cell proliferation, HDMEC; assay type: cell-based; conditions: Homo sapiens
HDMEC cells = test: Detachment effect on HDMEC endothelial cells; assay type: cell-based, Human; conditions: 1 μM, treatment for two hours
Text: A test to determine the detachment of endothelial cells was established in order to select the products on the basis of their “in vitro” activity. This test for determining the endothelial cell detachment is characterized in that the endothelial cells, inoculated in plates which are coated at the bottom with a binder, e.g., chosen from gelatin, fibronectin or vitronectin, after culturing, are supplemented with a medium containing the test compound, and the cells are then labeled with a fluorescent substance, the cells which become detached are removed by washing and the fluorescence of the remaining cells is counted in a fluorimeter.
This test consists in measuring the detachment of endothelial cells cultured on substrates based on a binder, e.g., chosen from fibronectin, vitronectin and gelatin. One day after inoculating the cells in plates containing 96 wells, for example, the culture medium is replaced with a medium containing the test compound in the absence of serum. The same preparation is prepared six times at three different concentrations ([…]) and the control without addition of antivascular product is prepared six times. After treatment for two hours with the test substance, the cells are labeled with calcein-AM (1.6 μg/ml) in a culture medium supplemented with 0.1% BSA. The cells which become detached are removed by washing with the culture medium containing 0.1% bovine serum albumin; 100 μl of medium are added to each well. The fluorescence of the remaining cells is counted in a fluorimeter. The data obtained are expressed relative to the control (untreated cells).
(§1) The assessment of the detachment of the endothelial cells in vitro is determined in the following way. HDMEC cells (Human Dermal Microvascular Endothelial Cells, Promocell, c-122102) are cultured in an ECGM-MV medium containing 5% fetal calf serum, growth factors (EGF 10 ng/ml, hydrocortisone 1 μg/ml, 0.4% growth supplement with heparin) and antibiotics (amphotericin 50 ng/ml, gentamicin 50 μg/ml). For the detachment test, the HDMECs are inoculated at a rate of 5 000 cells in clear-bottomed 96-well plates (Costar) precoated with fibronectin (10 μg/ml) or vitronectin (1 μg/ml) or gelatin. Twenty-four hours later, the culture medium is replaced with 0.1% BSA ECGM-MV medium containing the indicated products. The test concentrations are 0.1-0.3 and 1 μM for each product. After treatment for two hours, the cells are labeled for 1 hour with calcein (1.6 μg/ml, Molecular Probes) in 0.1% BSA ECGM-MV medium. The detached cells are then removed by washing with 0.1% BSA ECGM-MV medium; 100 μl of medium are added to each well. The fluorescence of the cells which remain attached to the substratum of the well is counted using a fluorimeter, Spectrafluor Plus (Tecan, excitation at 485 nm, and emission at 535 nm). The data are the average of six different samples and are expressed as a percentage of the control (untreated cells).
A cell detachment effect of greater than or equal to 15% is considered as significant.
as §1, with “(amphotericine” for “(amphotericin”, “The detached cells are then removed by washing with 0.1% BSA ECGM-MV medium; 100 μl of medium are added to each well. The fluorescence of the cells which remain attached to the substratum of the well is counted using a fluorimeter, Spectrafluor Plus (Tecan, excitation at 485 nm, and emission at 535 nm). The data are the average of six different samples and are expressed as a percentage of the control (untreated cells).” left out

SMILES	IC50 (HeLa cells)	C51 colon tumor necrosis in vivo (grade) ([1]; 25 mg/kg)	IC50 (HDMEC)	Percentage of detachment of HDMEC cells induced with the compound at a concentration of 1 μM (HDMEC cells)	C51 colon tumor necrosis in vivo (grade) ([1]; 12.5 mg/kg)
COc1cc(C(=O)/C(C)=C/c2ccc3c(ccn3C)c2)cc(OC)c1OC [Example 5, E-2-Methyl-3-(1-methyl-1-H-indol-5-yl)-1-(3,4,5-trimethoxyphenyl)propenone]	5 to 10 nM	Grade 5 at 25 (5=large, >75%)	30 nM	32%	
COc1ccc(/C=C(\C)C(=O)c2cc(OC)c(OC)c(OC)c2)cc1NC(=O)[C@@H](N)CO [Example 13, (S)-2-Amino-3-hydroxypropanoic acid {2-methoxy-5-[2-methyl-3-oxo-3-(3,4,5-trimethoxyphenyl)propenyl]phenyl}amide hydrochloride]	100 nM		30 nM	31%	Grade 5 at 12.5 (5=large, >75%)

From patent publication US20030153611A1, “1,3-Diarylprop-2-en-1-ones, compositions containing them and use thereof” (AVENTIS PHARMA S.A., priority 2001, published 2003)
